Activity calls are given as the source filed them. The calls are words filed in the database; no cut-off is given here.
Columns and labels:
Lymphocyte antigen 6K = target: T1, Lymphocyte antigen 6K (Homo sapiens, UniProt Q17RY6); experiment: Binding affinity to human wild type LY6K assessed as dissociation constant measured upto 250 sec by SPR assay
T1 sequence (Q17RY6 whole entry): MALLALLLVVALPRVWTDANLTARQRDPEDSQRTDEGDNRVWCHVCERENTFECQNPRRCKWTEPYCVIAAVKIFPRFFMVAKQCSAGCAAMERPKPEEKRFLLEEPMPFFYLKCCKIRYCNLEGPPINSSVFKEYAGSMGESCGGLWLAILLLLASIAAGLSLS

[1] = target: T2, Lymphocyte antigen 6K (Homo sapiens) (UniProt Q17RY6); experiment: Inhibition of LY6K in human Hs-578T cells assessed as reduction in cell viability measured after 48 hrs by Cell titer blue assay; assay type: cell-based; conditions: dose 5-10 µM
T2 sequence (whole entry): T1 sequence (Q17RY6 whole entry)

Hs-578T = experiment: Antiproliferative activity against human Hs-578T cells transfected with LY6K-shRNA assessed as reduction in cell viability at 5 to 10 uM measured after 48 hrs by Cell titer blue assay; assay type: functional, cell-based; conditions: dose 5-10 µM
[2] = Drug uptake in human Serum starved Hs-578T cells assessed as drug localization in perinuclear region of cell at 2 uM measured after 2 hrs by DAPI staining based confocal microscopy; assay type: ADME
[3] = Drug uptake in human Serum starved Hs-578T cells assessed as drug localization in cytoplasm of cell at 2 uM measured after 2 hrs by DAPI staining based confocal microscopy; assay type: ADME
[4] = Drug uptake in human Serum starved Hs-578T cells assessed as drug localization in membrane of the cell at 2 uM measured after 2 hrs by DAPI staining based confocal microscopy; assay type: ADME
[5] = target: T2, Lymphocyte antigen 6K (Homo sapiens); experiment: Binding affinity to human wild type LY6K at 1.25 to 5 uM measured upto 250 sec by SPR assay; conditions: dose 1.25-5 µM

Structure (SMILES) | Kd (Lymphocyte antigen 6K) [nM] | Activity [1] | Activity (Hs-578T) | Drug uptake [2] | Drug uptake [3] | Drug uptake [4] | Activity [5]
CCS(=O)(=O)Nc1ccc(Nc2c3ccccc3nc3cc(C(=O)NCCOCCOCCOCCOCCOCCOCCOCCNC(=O)CCCC[C@@H]4SC[C@@H]5NC(=O)N[C@@H]54)ccc23)c(OC)c1 | 300 | Dose-Dependent Effect | inactive |  |  |  | 
CCS(=O)(=O)Nc1ccc(Nc2c3ccccc3nc3cc(C(=O)NCCCCCCNc4ccc([N+](=O)[O-])c5nonc45)ccc23)c(OC)c1 |  | Dose-Dependent Effect | inactive | Active | Active | Active | Active
CCS(=O)(=O)Nc1ccc(Nc2c3ccccc3nc3ccccc23)c(OC)c1 | 4700 | Dose-Dependent Effect | inactive |  |  |  | Dose-Dependent Effect
CCS(=O)(=O)Nc1ccc(Nc2c3ccccc3nc3cc(C(=O)OCc4ccccc4)ccc23)c(OC)c1 |  |  |  |  |  |  | Active
CCS(=O)(=O)Nc1ccc(Nc2c3ccccc3nc3cc(NC(=O)CCCC[C@@H]4SC[C@@H]5NC(=O)N[C@@H]54)ccc23)c(OC)c1 |  |  |  |  |  |  | Active
CCS(=O)(=O)Nc1ccc(Nc2c3ccccc3nc3cc([N+](=O)[O-])ccc23)c(OC)c1 |  |  |  |  |  |  | Dose-Dependent Effect
